Results reported in patent publication US20240261426A1, “CONJUGATES COMPRISING PHOSPHOANTIGENS AND THEIR USE IN THERAPY” (BYONDIS B.V., priority 2021, published 2024).

What was measured:
Vδ2 γδ T-cells [1] = assay: Functional assay with pretreated HER2-positive cell lines; assay type: cell-based, human; details: pretreated HCT-116 cells (low HER2)
Vδ2 γδ T-cells [2] = assay: Functional assay with pretreated MOLM-13 or Raji cells, different DAR (CD107a); assay type: cell-based, human
Procedure: The functional assay was performed as disclosed in Example 23, with the exception that Raji and MOLM-13 cells were pretreated for 16 or 40 hours with antibodies/ADCs/controls (Table 13). Furthermore, CD107a degranulation levels were determined only and not IFNγ expression levels. Thus, on the third experimental days, cells were directly analyzed on the BD FACSymphony A3 Cell analyzer (BD Biosciences, San Jose, CA, USA), before incubation with BD Perm/wash. […] EC50 values were calculated in GraphPad Prism as the concentration in μg/mL that gives a response half way between bottom and top of the curve. […] Raji cells were cultured as described in Example 23. The CD123-positive acute monocytic leukemia cell line MOLM-13 (DSMZ, ACC 554, the German collection of Microorganisms and cell cultures GmbH (Leibniz Institute, Germany)) was cultured in CGM and was maintained at 37° C. in a humidified incubator containing 5% CO2 and sub-cultured twice a week.

Vδ2 γδ T-cells [3] = assay: Functional assay with pretreated CD20 positive B-cell lines (CD107a read-out); assay type: cell-based, human; details: all tested B-cell lines (Raji, HG-3, MEC-1, SU-DHL-4, SU-DHL-8)
Vδ2 γδ T-cells [4] = assay: Functional assay: Vδ2 γδ T-cell activation (CD107a, IFNγ, TNFα) after co-culture of PBMCs with pretreated Raji cells; assay type: cell-based, human; details: for IFNγ production and degranulation of Vδ2 γδ T-cells compared to pretreatment with HMBPP: pre-treated Raji cells; for IFNγ production and degranulation (CD107a) of Vδ2 γδ T-cells, in words: pretreated Raji cells co-cultured with PBMCs
Procedure: (§1) To determine (unconjugated) phosphoantigen prodrug activity, Raji target cells were pre-incubated with XC1 and XD1, prior to co-culture with peripheral blood mononuclear cells (PBMCs) containing effector cells. Selective gammadelta T-cell activation was studied in vitro after co-culture of PBMCs with tumor cells (from the CD20-positive Burkitt's Lymphoma human tumor cell line Raji) pretreated with phosphoantigen HMBPP, phosphoantigen prodrugs XC1, XD1, or the conjugates listed in Table 1.
(§2) The CD20-positive Burkitt's Lymphoma human tumor cell line Raji (DSMZ, the German collection of Microorganisms and cell cultures GmbH (Leibniz Institute, Germany)) was used for in vitro experiments. Raji cells were cultured in complete growth medium (CGM): RPMI-1640 (Lonza, Walkersville, MD, USA) supplemented with 10% Heat-inactivated (HI) Fetal Bovine Serum (FBS) (Gibco-Life Technologies; Carlsbad, CA) and 80 U/mL Penicillin-Streptomycin solution (Lonza Group Ltd, Basel Switzerland). Raji cells were maintained at 37° C. in a humidified incubator containing 5% CO2 and sub-cultured twice a week.
For stimulation with conjugates according to the invention (ADCs), unconjugated phosphoantigen prodrugs and HMBPP, Raji cells were harvested, diluted to a concentration of 5×10^6 cells/mL and 50 μL (equivalent to 250.000 cells/well) of this cell suspension was seeded into a 96-well plate. A 2-times concentrated, 10-fold serial dilution of the prodrugs and ADC was prepared in CGM. Plated Raji cells were incubated overnight (O/N) in a humidified incubator with 5% CO2 at 37° C. with 50 μL/well of the serially-diluted compounds.
The following day, the 96 well plate with Raji cells and compounds (ADCs, unconjugated phosphoantigen prodrugs or HMBPP) was washed by adding 100 μL/well CGM, centrifugation at 300×g for 3 minutes at room temperature (RT), and removal of supernatant in order to remove excessive unbound compound.
As a source of immune cells, frozen peripheral blood mononuclear cells (PBMCs) of a healthy human donor were thawed, resuspended in CGM and placed O/N in a humidified incubator with 5% CO2 at 37° C. to let the cells recover.
The recovered PBMCs were harvested, counted and diluted to a concentration of 10×10^6 cells/mL in CGM, and 50 μL/well (equivalent to 0.5×10^6 cells/well) was added to the Raji cells. […] In all experiments, 1% Phytohemagglutinin (PHA-M, Gibco-ThermoFisher), known as an aspecific activator of immune cells, was also included in a well to serve as a positive control. Samples were incubated for 6 hours in a humidified incubator with 5% CO2 at 37° C. […]

[5] = test system: NK cells, CD8+ T-cells, Vδ1 γδ T-cells; assay: Functional assay: activation of other immune cells after co-culture of PBMCs with pretreated Raji cells; assay type: cell-based, human; details: pretreated Raji cells co-cultured with PBMCs; PHA-M added to co-culture
Procedure: as §1
as §2, with “week. […]” for “week.”
The recovered PBMCs were harvested, counted and diluted to a concentration of 10×10^6 cells/mL in CGM, and 50 μL/well (equivalent to 0.5×10^6 cells/well) was added to the Raji cells. […]

Raji cells [6] = assay: Direct compound-related cell death (CellTiter-Glo, 6 days); assay type: cell-based, human; details: 6 days incubation, positive control
Procedure: Metabolic activity was assessed after 6 days, using the CellTiter-Glo™ (CTG) luminescent assay kit from Promega Corporation (Madison, WI) according to the manufacturer's instructions. Cell viability was expressed as the percentage survival relative to the average mean of untreated cells or vehicle-treated cells (only growth medium or 1% DMSO) multiplied with 100. The efficacy was calculated by subtracting the bottom of the dose response curve (DRC) from 100%.

Raji cells [7] = assay: Cellular binding to Raji cells (flow cytometry); design: species or system human
Procedure: Raji cells were cultured as described in Example 23. […] After an incubation time of 30 minutes at 4° C., the cells were washed twice with ice-cold FACS buffer. […] After 30 minutes at 4° C., cells were washed twice and resuspended in 150 μL ice-cold FACS buffer. Fluorescence intensities were determined by flow cytometry using the FACSVerse or FACSymphony (BD Biosciences) and indicated as the median fluorescence intensity (MFI). Curves were fitted by nonlinear regression with a variable slope (four parameters) in GraphPad Prism version 9. EC50 values were calculated in GraphPad Prism as the concentration in μg/mL that gives a response halfway between bottom and top of the curve. Binding experiments were performed N=2 or N=3 times.

[8] = target: T1, CD20 on Raji cells (CD20-positive Burkitt's Lymphoma human tumor cell line) (human, UniProt P11836 1-297); assay: flow cytometry on CD20-positive Raji cells, APC anti-human IgG F(ab')2 secondary, MFI curve fit; experiment 5, 6 and 7
T1 construct: whole, on cells
T1 sequence (looked up): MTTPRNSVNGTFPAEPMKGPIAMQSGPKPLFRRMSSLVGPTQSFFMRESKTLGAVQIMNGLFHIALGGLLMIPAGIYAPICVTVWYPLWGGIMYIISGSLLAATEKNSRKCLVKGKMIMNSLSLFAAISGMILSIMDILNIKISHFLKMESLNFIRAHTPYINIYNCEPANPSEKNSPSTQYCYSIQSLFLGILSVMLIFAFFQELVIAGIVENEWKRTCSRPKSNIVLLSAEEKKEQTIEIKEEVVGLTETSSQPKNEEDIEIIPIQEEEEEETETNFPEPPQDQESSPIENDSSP

[9] = target: T1, CD20 on Raji cells (CD20-positive …); assay: flow cytometry on CD20-positive Raji cells, APC anti-human IgG F(ab')2 secondary, MFI curve fit; experiment 3 and 4
[10] = target: T1, CD20 on Raji cells (CD20-positive …); assay: flow cytometry on CD20-positive Raji cells, APC anti-human IgG F(ab')2 secondary, MFI curve fit; experiment 1 and 2

C/C(=C\COP(=O)(O)OP(=O)(O)O)CO [HMBPP, (E)-4-Hydroxy-3-methyl-but-2-enyl pyrophosphate]
activation of Vδ2 γδ T-cells, in words (Vδ2 γδ T-cells [1]): able to activate Vδ2 γδ T-cells | Vδ2 γδ T-cell activation, in words (Vδ2 γδ T-cells [2]): capable of activating Vδ2 γδ T-cells | activation (degranulation) of Vδ2 γδ T-cells, in words (Vδ2 γδ T-cells [3]): induced degranulation of Vδ2 γδ T-cells

C/C(=C\CCP(=O)(OCOC(=O)C(C)(C)C)OCOC(=O)C(C)(C)C)CO [XC1]
IFNγ production and degranulation of Vδ2 γδ T-cells compared to pretreatment with HMBPP (Vδ2 γδ T-cells [4]): more potently induced | IFNγ production and degranulation (CD107a) of Vδ2 γδ T-cells, in words (Vδ2 γδ T-cells [4]): dose-dependently induced IFNγ production and degranulation | activation of other immune cells (NK cells, CD8+ T-cells, Vδ1 γδ T-cells), in words [5]: without inducing direct activation of other immune cells

C/C(=C\CCP(=O)(N[C@@H](C)C(=O)OCc1ccccc1)Oc1ccccc1)CO (stereo partly shown) [XD1]
IFNγ production and degranulation of Vδ2 γδ T-cells compared to pretreatment with HMBPP (Vδ2 γδ T-cells [4]): more potently induced | IFNγ production and degranulation (CD107a) of Vδ2 γδ T-cells, in words (Vδ2 γδ T-cells [4]): dose-dependently induced IFNγ production and degranulation | activation of other immune cells (NK cells, CD8+ T-cells, Vδ1 γδ T-cells), in words [5]: without inducing direct activation of other immune cells

COC(=O)c1cc2c([nH]1)C(=O)C=C1N(C(=O)c3cc4cc(OC)c(OC)c(OC)c4[nH]3)C[C@H]3C[C@]123 [duocarmycin type toxin]
direct compound related cell death, in words (Raji cells [6]): very effective

rituximab: Anti-CD20 monoclonal antibody (MoAb) [reference compound]
Binding to Raji cells EC50 (Raji cells [7]; Experiment 1 and 2): 0.6 µg/mL | Binding to Raji cells EC50 (Raji cells [7]; Experiment 3 and 4): 1.221 µg/mL | Binding to Raji cells EC50 (Raji cells [7]; Experiment 5, 6 and 7): 3.451 µg/mL

B1: rituximab (anti-CD20 monoclonal antibody) (antibody, V domains shown)
VH: QVQLQQPGAELVKPGASVKMSCKASGYTFTSYNMHWVKQTPGRGLEWIGAIYPGNGDTSYNQKFKGKATLTADKSSSTAYMQLSSLTSEDSAVYYCARSTYYGGDWYFNVWGAGTTVTVSA
VL: QIVLSQSPAILSASPGEKVTMTCRASSSVSYIHWFQQKPGSSPKPWIYATSNLASGVPVRFSGSGSGTSYSLTISRVEAEDAATYYCQQWTSNPPTFGGGTKLEIK
EC50 [8]: 3.45 µg/mL | EC50 [9]: 1.22 µg/mL | EC50 [10]: 0.6 µg/mL
